Tests used:
Oral LD50 in mice = settings: mouse, in vivo
[1] = tested on: reserpine-induced hypothermia; assay: Reversal of reserpine-induced hypothermia in mice (RHL test); assay type: in vivo; settings: reserpine 2 mg./kg. s.c., T0 to T4 (4 hours)
Procedure: The reversal of reserpine-induced hypothermia, known as the RHL test, is carried out as follows:
Mice are kept in a constant temperature room maintained at 21 ± 1° C. Each member of groups of 4 mice is given reserpine (2 mg. of base per kg. bodyweight, given subcutaneously as the acetate). Seventeen hours later the oesophageal temperature (T0) of each mouse is recorded by means of an orally-inserted probe coupled to an electric thermometer which is calibrated in degrees Centrigrade and which can be read to 0.1° C. Immediately after the temperature measurement the mice are dosed orally with the test compound, or with imipramine, each mouse in a group of 4 being given the same substance, and the oesophageal temperatures are again recorded after 4 hours (T4). The compound under test is dosed at serial dilutions, e.g. 100, 30, 10, 3, 1, 0.3, 0.1 mg./kg. Imipramine is used as the control. […] At 1 mg./kg. it produces an average rise of 1.7° C. A test compound which at a certain does level gives a rise in temperature equal to or greater than that given by 1 mg./kg. of imipramine, dosed to a different set of mice on the same day, is adjudged "active" at that dose.

Row | Compound | LD50 (Oral LD50 in mice) [mg/kg] | average rise in the temperature of a reserpinised mouse ([1]; imipramine 1 mg./kg. oral) [°C] | average rise in the temperature of a reserpinised mouse ([1]; imipramine 3 mg./kg. oral) [°C]
1 | Cc1ccccc1CCC1CNCCO1 (stereo not drawn) [2-[β-(2-methylphenyl)ethyl]morpholine] | 550 |  | 
2 | CN(C)CCCN1c2ccccc2CCc2ccccc21 [imipramine] |  | 1.7 | 3
3 | c1ccc(Oc2ccccc2CCC2CNCCO2)cc1 (stereo not drawn) [2-[β-(2-phenoxyphenyl)ethyl]morpholine] | 1000 |  | 

Source: US4049808A, “2-Phenyl ethyl morpholine compounds” (Imperial Chemical Industries Limited, priority 1974, dated 1977)
